Key:
[1] = test system: osteoblasts (monolayer culture); assay: Metabolic activity (MTT), monolayer osteoblast cell culture; assay type: cell-based, rat; conditions: for metabolic activity measured by the MTT reaction / MTT reaction: preliminary
Protocol: This isolation technique is based on the ability of osteoblasts to migrate from bone onto a substratum. Parietal and frontal calvariae (4 per animal) were aseptically explanted from 6 day-old IcoIbm rats. The calvariae were placed in Tyrode's balanced salt solution, calcium and magnesium free (TESS). The periosteum was enzymatically removed with 0.05% trypsin and 0.02% collagenase A (0.76 U/mg) dissolved in TBSS (40 calvaria/20 ml). The calvariae were shaken for 70 minutes in a waterbath at 37° C. They were washed with TESS and then transferred to 60 mm culture dishes (40 calvariae/dish) containing 5 ml of 0.02% collagenase A (0.76 U/mg) in culture medium BGJb Fitton-Jackson modification and placed in the incubator for 4 hours. The calvariae were then washed with culture medium B supplemented with 10% foetal calf serum (FCS). The calvariae were transferred into 60 mm culture dishes (4 frontal and 4 parietal/dish). The growth medium supplemented with 10% FCS and 50 μg/ml ascorbate was completely changed every 48 hours. The culture was kept for 3 weeks.
After 3 weeks the migrated cells were harvested. The dish was washed with TESS, and 5 ml of TESS containing 0.05% trypsin and 0.02% collagenase A (0.76 U/mg) was added. After 1 hour in the incubator, the dish was washed with culture medium BGJb supplemented with 10% FCS. The dishes containing the calvariae and cells were rinsed with serum containing media BGJb. The cells obtained were filtered through a 40 μm nylon mesh to remove bone debris and cell aggregates. The suspended cells were centrifuged at 600 g for 5 minutes. The cell pellet was resuspended in serum containing medium BGJb and centrifuged. The viability of the resuspended cells was examined by the dye exclusion of 0.4% trypan blue, and the cells were counted in a haeinocytometer. The inoculation densities were 2·10^5/10 cm^2 for monolayer and 2·10^5/30 μl for micromasses. The micromass cultures were kept for 1 hour in the incubator before 2 ml growth medium was added.
All the cultures were kept at 37° C. in a humidified atmosphere of 5% CO2, 95% air. All culture media were supplemented with 50 μg/ml ascorbate. To analyze the collagen types, 60 μg/ml beta-aminopropionitrile (beta-APN) was added to the culture medium. During cell isolation and inoculation, no ascorbate was used to increase plating efficiency. No antibiotics and no beta-glycerophosphate were added. The media were completely changed every 48 hours (60 mm culture dish 5 ml; 35 mm culture dish 2 ml).
The Böhringer Cell Proliferation Kit I (MTT) was used for the assay, but we used a different solvent to dissolve the MTT crystals.
Originally, Mosmann, 1983 described the general principle involved in the detection of cell growth/cell death as indicated by the conversion of the tetrazolium salt (MTT) to the colored formazan by mitochondrial dehydrogenases. The concentration of this can then be measured spectrophotoinetrically.
1. MTT Stock (5 mg/ml in sterile PBS) from Böhringer was diluted […] with complete growth medium and sterile filtering.
2. The cells were incubated in 2 ml/10 cm^2 MTT solution at 37° C. for 3 hours.
3. The supernatant was carefully removed.
4. 4 ml/10 cm^2 dimethylsulphoxide (DMSO) was added.
5. The dishes were placed on a shaker until the crystals were completely dissolved.
6. The absorbance of the supernatant (3 aliquots/dish) was read at 550 nm versus DMSO.
If the absorbance was higher than 1, the samples were diluted with DMSO.
The mean value and the standard deviation consisted of n independent experiments. The values for the individual experiments were gained from the mean of 3 aliquots of the same dish. To compare the treatment, contrasts analysis of variance models were evaluated.

[2] = test system: osteoblasts (monolayer culture); assay: Mineralization (von Kossa, image analysis), monolayer osteoblast cell culture; assay type: cell-based, rat; conditions: for mineralization (FIG. 3): no significant difference between groups
Protocol: This isolation technique is based on the ability of osteoblasts to migrate from bone onto a substratum. Parietal and frontal calvariae (4 per animal) were aseptically explanted from 6 day-old IcoIbm rats. The calvariae were placed in Tyrode's balanced salt solution, calcium and magnesium free (TESS). The periosteum was enzymatically removed with 0.05% trypsin and 0.02% collagenase A (0.76 U/mg) dissolved in TBSS (40 calvaria/20 ml). The calvariae were shaken for 70 minutes in a waterbath at 37° C. They were washed with TESS and then transferred to 60 mm culture dishes (40 calvariae/dish) containing 5 ml of 0.02% collagenase A (0.76 U/mg) in culture medium BGJb Fitton-Jackson modification and placed in the incubator for 4 hours. The calvariae were then washed with culture medium B supplemented with 10% foetal calf serum (FCS). The calvariae were transferred into 60 mm culture dishes (4 frontal and 4 parietal/dish). The growth medium supplemented with 10% FCS and 50 μg/ml ascorbate was completely changed every 48 hours. The culture was kept for 3 weeks. After 3 weeks the migrated cells were harvested. The dish was washed with TESS, and 5 ml of TESS containing 0.05% trypsin and 0.02% collagenase A (0.76 U/mg) was added. After 1 hour in the incubator, the dish was washed with culture medium BGJb supplemented with 10% FCS. The dishes containing the calvariae and cells were rinsed with serum containing media BGJb. The cells obtained were filtered through a 40 μm nylon mesh to remove bone debris and cell aggregates. The suspended cells were centrifuged at 600 g for 5 minutes. The cell pellet was resuspended in serum containing medium BGJb and centrifuged. The viability of the resuspended cells was examined by the dye exclusion of 0.4% trypan blue, and the cells were counted in a haeinocytometer. The inoculation densities were 2·10^5/10 cm^2 for monolayer and 2·10^5/30 μl for micromasses. The micromass cultures were kept for 1 hour in the incubator before 2 ml growth medium was added. All the cultures were kept at 37° C. in a humidified atmosphere of 5% CO2, 95% air. All culture media were supplemented with 50 μg/ml ascorbate. To analyze the collagen types, 60 μg/ml beta-aminopropionitrile (beta-APN) was added to the culture medium. During cell isolation and inoculation, no ascorbate was used to increase plating efficiency. No antibiotics and no beta-glycerophosphate were added. The media were completely changed every 48 hours (60 mm culture dish 5 ml; 35 mm culture dish 2 ml). The most specific method for detecting calcified matrices is the von Kossa reaction. Silver staining indicates the presence of calcium phosphate aggregated with certain organic acids. Structural details are completely obscured by the dark precipitate. Calcified tissue components are darkened in various shades from light brown to deep black, irrespective of their mineral content. [table] In the further experiments to quantify the calcification by image analysis of a center area (123 mm^2) of the culture dish, only the creatine groups were compared to the control groups, with the GPA-treated cells not further evaluated.

Structure (SMILES)	effects on the metabolism and the viability of the cells ([1]; GPA-treated osteoblasts, summary)	metabolic activity measured by the MTT reaction ([1]; 2 weeks, 10 mM GPA vs control)	MTT reaction ([1]; 3 weeks, 1 mM or 5 mM GPA vs control)	MTT reaction ([1]; 3 weeks, 10 mM GPA vs control)	calcification pattern ([2]; 3 weeks, GPA groups, mineralization not limited to the nodules)	metabolic activity (MTT) (FIG. 2) ([1]; 10 mM and 20 mM creatine vs control, 1 week)	metabolic activity (MTT) (FIG. 2) ([1]; 10 mM creatine vs control, 2 weeks, p<0.015)	metabolic activity (MTT) (FIG. 2) ([1]; 10 mM creatine vs control, 3 weeks, p<0.001)	metabolic activity (MTT) (FIG. 2) ([1]; 20 mM creatine vs control, 2 weeks, p<0.0025)	metabolic activity (MTT) (FIG. 2) ([1]; 20 mM creatine vs control, 3 weeks, p<0.001)	metabolic activity measured by the MTT reaction ([1]; 2 weeks, creatine groups vs control)	MTT reaction ([1]; 3 weeks, creatine vs control)	mineralization (FIG. 3) ([2]; 10 mM creatine vs control, 3 weeks)	calcified area (FIG. 3) ([2]; 20 mM creatine vs control, 2 weeks, p<0.02, center area 123 mm^2)	mineralization (FIG. 3) ([2]; 20 mM creatine, 3 weeks, compared with 10 mM)	mineralization, mean values ([2]; creatine groups vs control, after 2 and 3 weeks)
N=C(N)NCCC(=O)O [GPA, beta-guanidinopropionic acid]	adverse effects on both the metabolism and the viability of the cells	lower values than the control	lower values than the control	comparable to the control	different from the control and the creatine groups	–	–	–	–	–	–	–	–	–	–	–
CN(CC(=O)O)C(=N)N [creatine]	–	–	–	–	–	all groups were similar	control group was significantly lower than the 10 mM creatine	significantly higher than the control group	control group was significantly lower than the 10 mM creatine and the 20 mM creatine	significantly higher than the control group	slightly stimulated	stimulated the MTT reaction	more mineralization than the control	significantly higher	less effective	Mean values were higher
